From PubChem BioAssay AID463229 (Broad Institute, 2010)
Calls of active or inactive are those of the source.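 How the source made its calls: active means compounds raising the signal whose fitted half-maximal concentration is at or below their top tested dose (cut at about 25 µM in these data); inconclusive means flat fit at 30 to 70% activity, or a poor fit; inactive means the rest.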

The molecules below were run on INS-1E rat beta cells, no cytokines, CellTiter-Glo ATP, 48 h (assay: cytokine-free beta-cell viability effect – INS-1E rat cells, ATP luminescence, cherry pick, counter-screen for beta-cell apoptosis protection project, dose response (AID 463229)).

Row | Structure (SMILES) | AC50
1 | COc1ccc(-n2c(-c3ccc(Cl)cc3)c[n+]3c2CCc2ccccc2-3)cc1 | 1.78 µM
2 | COc1ccc(Sc2nc(-c3ccccn3)ncc2OC)cc1 | 19.3 µM
3 | COc1ccc(CC(=O)Nc2nc(-c3ccc(F)c(F)c3)cs2)cc1OC | 7.2 µM
4 | COc1ccc(C(NC(=O)C(C)C)c2ccc3cccnc3c2O)cc1 (configuration not stated) | 2.84 µM
5 | CCCCCCCCNC(C)C(O)c1ccc(SC(C)C)cc1 (configuration not stated) | 10.5 µM
6 | C1=C(CCNc2ncnc3c2[nH]c2ccccc23)CCCC1 | 0.489 µM
7 | Nc1nonc1-n1nnc(C(=O)N/N=C/c2cc(Cl)ccc2O)c1CN1CCCCCC1 | 10.5 µM
8 | Cc1cc(Nc2cccc(F)c2)nc(NCc2ccccc2)n1 | 5.15 µM
9 | COc1cc(NC(=O)COc2cc(O)c3c(c2)OC(C)(C)CC3=O)cc(OC)c1OC | 6.45 µM
10 | CCCC(=O)NC(c1ccccc1)c1ccc2cccnc2c1O (configuration not stated) | 2.85 µM
11 | Cc1ccnc(NC(=O)c2ccc([N+](=O)[O-])s2)c1 | 8.41 µM
12 | COC(=O)c1ccc2[nH]c3cccc(/C(=C/c4ccccc4)c4ccccc4)c3c2c1 | 15.7 µM
13 | CC(C)(C)c1ccc(NNC(=O)C2CCC2)cc1 | 9.64 µM
14 | O=C(/C(=C/c1cccc(Cl)c1)c1nc2ccccc2[nH]1)c1ccccc1 | 4.36 µM
15 | CCCCC(=O)NC(c1ccc(Cl)cc1)c1ccc2cccnc2c1O (configuration not stated) | 1.35 µM
16 | O=C(Nc1nc(NC(=O)c2ccco2)n(-c2ccccc2)n1)c1ccccc1 | 6.83 µM
17 | Cc1cc(N/N=C/c2ccc(F)cc2)nc(-n2nc(C)cc2C)n1 | 20.1 µM
18 | CC(C)(C)c1cc[n+](C2=C([O-])c3ccccc3C(=O)/C2=N\S(=O)(=O)c2cccs2)cc1 | 7.44 µM
19 | Cc1c(C)c2cccnc2c2ncccc12 | 2.49 µM
20 | COc1ccc(Cl)c(Cn2c(NCc3ccco3)nc3c2c(=O)n(C)c(=O)n3C)c1 | 13.1 µM
21 | CN(C)S(=O)(=O)c1cccc(CSCc2cccc(S(=O)(=O)N(C)C)c2)c1 | 7.78 µM
22 | C/C(=N\NC(=O)c1ccc(C)cc1)c1c(C)[nH]n(-c2ccccc2)c1=O | 15.3 µM

Row | Structure (SMILES) | AC50
23 | CCN(c1ccccc1)S(=O)(=O)c1ccc(C(=O)NC2CCN(Cc3ccccc3)CC2)cc1 | 6.36 µM
24 | CN(C)c1ccc(-c2cc(O)c3ncccc3c2)cc1 | 26.9 µM
25 | COc1ccccc1N1CCN(c2ncc(C(=O)N3CCN(c4cccc(Cl)c4)CC3)c3ccccc23)CC1 | 4.69 µM
26 | Oc1ccc(CN2CCc3ccccc3C2)c2cccnc12 | 3.7 µM
27 | O=c1[nH]c(=O)n(Cc2ccco2)c2c1C(C(F)(F)F)(C(F)(F)F)N=C(c1ccc(F)cc1)N2 | 1.39 µM
28 | CCSc1ccc(NC(=O)c2cccnc2)cc1 | 11.1 µM
29 | O=C(COc1ccc2ccccc2c1)N1CCN(Cc2c[nH]c3ccccc23)CC1 | 2.8 µM
30 | CCN(CC)CCC(=O)Nc1cccc2c1C(=O)c1ccccc1C2=O | 12 µM
31 | COc1ccccc1CNc1ncnc2sccc12 | 11.9 µM
32 | Cc1ccc(C(C)C)c(OCc2nn(CC(=O)c3ccc(OC(F)F)cc3)c3[n+]2CCCCC3)c1 | 4.43 µM
33 | Cc1ccc(S(=O)(=O)Nc2ccc(NC(=O)Nc3cccc(C(F)(F)F)c3)cc2)cc1 | 11.9 µM
34 | Cc1ccc2[nH]c(C(=O)N/N=C/c3ccccc3O)c(C)c2c1 | 2.33 µM
35 | Nc1c(Cl)ncnc1N/N=C/c1ccc2ccccc2n1 | 4.38 µM
36 | COc1ccc(-c2csc(NC(=O)C3CCN(c4ncnc5sc(C)c(C)c45)CC3)n2)cc1OC | 4.88 µM
37 | Cc1cc(N/N=C/c2ccccc2[N+](=O)[O-])nc(-n2nc(C)cc2C)n1 | 12.2 µM
38 | COc1cccc(/C=N/Nc2nc3ccccc3n3cnnc23)c1O | 7.23 µM
39 | Cc1cc(Nc2nc3ccccc3nc2Cl)n(-c2ccc([N+](=O)[O-])cc2)n1 | 12 µM
40 | CC(C)(C)c1cc(CCC(=O)NNC(=S)NC(=O)c2ccccc2)cc(C(C)(C)C)c1O | 7.17 µM
41 | Cc1ccccc1Oc1cc(NC(=O)CCCn2nc(C)c([N+](=O)[O-])c2C)cc([N+](=O)[O-])c1 | 6.44 µM
42 | COc1ccc(CNC[C@@H](CCCCN(C)Cc2ccc(OC)cc2)N2C[C@H](c3ccccc3)N(CCc3ccc(Cl)c(Cl)c3)C(=O)C2=O)cc1 | 7.17 µM
43 | COc1ccc(C(=O)C/C(=C\C(=O)c2ccc(C)cc2)c2ccccc2)cc1 | 7.67 µM
44 | OC(c1cc(-c2ccc(C(F)(F)F)cc2)nc(C(F)(F)F)c1)C1CCCCN1 (configuration not stated) | 6.81 µM

Row | Structure (SMILES) | AC50
45 | CCC(=O)NC(c1ccccc1OC)c1ccc2cccnc2c1O (configuration not stated) | 4.29 µM
46 | Oc1ccc(N=Nc2ccccc2C(F)(F)F)c2cccnc12 | 3.18 µM
47 | CCN(CC)CCOc1ccc2c(c1)C(=NNC(=O)c1ccccn1)c1cc(OCCN(CC)CC)ccc1-2 | 13.8 µM
48 | Cn1nc([N+](=O)[O-])nc1Sc1cccc2cccnc12 | 7.81 µM
49 | O=C(N/N=C/c1ccc([N+](=O)[O-])o1)c1cc2ccccc2o1 | 6.22 µM
50 | CC1(C)CC(N2CCN(c3ccccc3)CC2)=CC(=[N+]2CCCC2)C1 | 1.79 µM
51 | COc1ccc2c(c1)N(C)/C(=C/c1cccc[n+]1C)S2 | 1.49 µM
52 | Oc1ccc(/C=N/Nc2ncc(Br)cn2)c(O)c1 | 3.83 µM
53 | COc1ccc(C[C@H]2CN3C(=NC[C@@H]3Cc3ccccc3)N2CCNC(=O)CCC2CCCCC2)cc1 | 12.1 µM
54 | COc1ccc(CNCCc2c(C)[nH]c3ccc(OC(F)(F)F)cc23)c(OC)c1 | 6.6 µM
55 | CCc1ccc2c(c1)C1(C(=O)N2)N2CCCC2C(C(=O)c2ccc3ccccc3c2)C12C(=O)Nc1ccccc12 (configuration not stated) | 7.76 µM
56 | C=CC(C)(C)c1c(O)c(CC=C(C)C)c(O)c2c(=O)c3ccc(O)c(O)c3oc12 | 5.39 µM
57 | Cc1cc(C)c(CN2CCN(C(=O)Cn3cnc4c(OCc5ccccc5)ncnc43)CC2)c(C)c1 | 6.91 µM
58 | c1ccc(CCNc2ncnc3ccccc23)cc1 | 1.71 µM
59 | O=C(Nc1cccc(C(F)(F)F)c1)Nc1ccc(N2CCCC2)c(S(=O)(=O)Nc2ccccc2Cl)c1 | 4.27 µM
60 | CCCC[C@@H](CN[C@H](C)CNC)NCC1CCC(C(C)(C)C)CC1 (some centres not stated) | 15 µM
61 | CC1=NN(c2nc(-c3ccc(C)cc3)cs2)C(=O)C1N=Nc1ccc(C(N)=O)cc1 (configuration not stated) | 3.53 µM
62 | N=c1c2c(n(Cc3ccc(Cl)c(Cl)c3)c3c1CCC3)CCCC2 | 3.57 µM
63 | CCC(C)(C)c1ccc(OCCCC[n+]2ccccc2)c(C(C)(C)CC)c1 | 2.27 µM
64 | COCCCNC(=O)Cn1nnc(-c2ccc(NC(=O)c3cccnc3)cc2)n1 | 5.3 µM
65 | COCCC1CCCCN1C(=O)c1cc(COc2ccc(-n3cncn3)cc2)on1 (configuration not stated) | 6.35 µM
66 | Cn1nc(C(C)(C)C)cc1C(=O)NCc1ccc(N2CCCC2=O)cc1 | 5.65 µM

Row | Structure (SMILES) | AC50
67 | Cc1ccc(C)c(NC(=S)NC(NC(=O)Cc2cccc3ccccc23)C(Cl)(Cl)Cl)c1 (configuration not stated) | 5.67 µM
68 | CCCCCn1c(=O)c(C(=O)Nc2nc3ccccc3[nH]2)c(O)c2ccccc21 | 7.03 µM
69 | CC1CC(=O)c2c(cc3c(-c4c(O)cc(O)c5c(O)c6c(cc45)OC(C)CC6=O)c(O)cc(O)c3c2O)O1 (configuration not stated) | 5.1 µM
70 | CCOC(=O)N1CCC(NC(=O)C2CCCN(Cc3nc(-c4cccc(Cl)c4)oc3C)C2)CC1 (configuration not stated) | 6.01 µM
71 | Oc1ccc(CCNc2ncnc3ccc(Cl)cc23)cc1 | 5.59 µM
72 | Cc1sc2ncnc(N/N=C/c3ccccc3O)c2c1C | 3.03 µM
73 | Cc1ccc(-n2c(Cl)c(Cl)nc(Cl)c2=O)cc1 | 6.66 µM
74 | Cc1nn(C)c(C)c1CN(Cc1nc(CCC(C)C)no1)C(C)C | 4.22 µM
75 | CC(C)(C)C1C/C(=C/c2ccccn2)C(=O)/C(=C/c2ccccn2)C1 (configuration not stated) | 0.672 µM
76 | CCC(=O)NC(c1ccc(Cl)cc1Cl)c1ccc2cccnc2c1O (configuration not stated) | 2.34 µM
77 | CC(C)(C)c1cnnn1-c1ccc(/C=N/Nc2ccc([N+](=O)[O-])cc2)cc1 | 7.77 µM
78 | CC1(C)CC(N2CCN(Cc3ccccc3)CC2)=CC(=[N+]2CCCCC2)C1 | 2.55 µM
79 | COc1ccc2nc(C)cc(N/N=C/c3ccccc3)c2c1 | 13.8 µM
80 | CCCCCCSc1cc(-c2nc3ccc(C)cn3c2NCCCC)ccc1OC | 6.79 µM
81 | O=C(CSc1nnc(Cn2nnc3ccccc32)o1)N(Cc1ccc(Cl)cc1)c1ccccc1 | 6.17 µM
82 | Cc1cc(C)nc(N/N=C/c2cc(Br)ccc2O)n1 | 12.6 µM
83 | C#CCOCCOCCOCCNc1nc(N2CCN(C(=O)CCCCCCCCCCNC(=O)[C@H]([C@@H](C)CC)n3cc(CCCCN=C(N)N)nn3)CC2)nc(N2CCN(C(=O)CCCCCCCCCCNC(=O)[C@H](CCCCN)n3cc(C)nn3)CC2)n1 | 6.28 µM
84 | O=C(N/N=C/c1cc([N+](=O)[O-])ccc1O)c1cccc(NC(=O)c2cccc(Cl)c2)c1 | 5.82 µM
85 | Cc1ccc(C(=O)NC(=S)/C=C2\N(C)c3ccccc3C2(C)C)cc1 | 4.23 µM
86 | C=CCNC(=S)N/N=C(\C)c1ccccn1 | 1.22 µM
87 | CN(C)CCOc1ccc(-c2c(-c3ccccc3)sc3ccccc23)cc1 | 12.8 µM
88 | CC(=O)NN1C(=O)c2ccc3c4c(ccc(c24)C1=O)C(=O)N(NC(C)=O)C3=O | 3.65 µM

Row | Structure (SMILES) | AC50
89 | CCOC(=O)N1CCN(S(=O)(=O)c2ccc(C(=O)NNc3nc4ccc(Cl)cc4s3)cc2)CC1 | 5.43 µM
90 | CC1CCC/C=C/C2CC(O)CC2C(O)/C=C/C(=O)O1 (configuration not stated) | 0.759 µM
91 | CCN1CCN(c2ccc(S(=O)(=O)N3CCCCC3)cc2NC(=O)c2ccc([N+](=O)[O-])o2)CC1 | 8.1 µM
92 | Cc1sc2cc3c(c(C(=O)c4ccccc4)[n+]2c1C)-c1cccc2cccc-3c12 | 2.27 µM
93 | Cc1ccc(Sc2cc(C)nc(-c3ccccn3)n2)cc1 | > 26 µM (inactive)
94 | NNc1ncnc2scc(-c3ccc(Cl)cc3)c12 | 14.5 µM
95 | Oc1cccc(C(Nc2nccs2)c2ccc3cccnc3c2O)c1 (configuration not stated) | 2.54 µM
96 | COc1ccc(Nc2nc(N3CCCCC3)c3ccccc3n2)cc1 | 12 µM
97 | O=C(Nc1cccnc1)c1ccc([N+](=O)[O-])s1 | 15.3 µM
98 | O=C(Nc1cccnc1)C1(F)C(F)(F)C(F)(F)C(F)(F)C(F)(F)C1(F)F | 3.56 µM
99 | CCN(CC)S(=O)(=O)c1cc(OC)ccc1N=Nc1ccc(O)c2ncccc12 | 4.04 µM
100 | CCN(CC)c1ccc(/C=N/NC(=O)c2ccco2)c(O)c1 | 2.11 µM
101 | COc1cccc2sc(Nc3nc(-c4ccccn4)cs3)nc12 | 3.75 µM
102 | COc1cccc(C(=O)Oc2c(CN3CCOCC3)cc(Cl)c3cccnc23)c1 | 14.3 µM
103 | Cn1nccc1C(=O)NC1CCCc2c1cnn2-c1ccccc1F (configuration not stated) | 3.16 µM
104 | O=C(N/N=C/c1cc(Cl)ccc1O)c1cccnc1 | 8.72 µM
105 | CC(C)CC[n+]1ccn(C2=C([O-])c3ccccc3C(=O)/C2=N\S(=O)(=O)c2ccccc2)c1 | 22.9 µM
106 | CC(C)(C)c1cc(C=C(C#N)C#N)cc(C(C)(C)C)c1O | 0.984 µM
107 | COc1ccc(C2c3ccc4ccccc4c3Oc3ncn(CCCN(C)C)c(=N)c32)cc1 (configuration not stated) | 8.02 µM
